System: harmaline-induced hypolocomotion in male SD rats
Assay: Co-dosing with propranolol in rat harmaline-induced hypolocomotion (open field, 30 min)
Assay type: in vivo
Settings: harmaline 30 mg/kg, 3 mg/kg study drug alone (without propranolol), identical study
Protocol: Two harmaline model studies using sLMA as one ADL-like end point were carried out. In each of two sLMA studies, male SD rats were grouped into five groups according to the following table. In the first study, Groups 3, 4, and 5 received 3 mg/kg of propranolol and the compound of Formula (I) (the study drug) at the doses of 1 mg/kg or 3 mg/kg. In the second study, Groups 3, 4, and 5, received 10 mg/kg of propranolol and the study drug at the doses of 1 mg/kg or 3 mg/kg.
Rats were then subjected to an open field test for 30 minutes. Total distance travelled was measured.

In the case of `CC(C)(C)NC(=O)CN1CCC(CNC(=O)c2cc(F)cc(Cl)c2)CC1.Cl` [Study drug], the “harmaline-induced hypolocomotion (traveling distance in 0-30 minutes) vs harmaline and vehicle” value was “not significantly different”.

From patent publication US20250170114A1, “METHODS OF TREATMENT USING T-TYPE CALCIUM CHANNEL MODULATORS” (Praxis Precision Medicines, Inc., priority 2022, published 2025)
